Experimental data: patent US20230243825A1, “ADAPTIVE NANOPARTICLE PLATFORMS FOR HIGH THROUGHPUT EXPANSION AND DETECTION OF ANTIGEN-SPECIFIC T CELLS” (The Johns Hopkins University, priority 2020, published 2023)

Assays:
B16-OVA tumor cells = experiment: IFN-γ pre-incubation of tumor cells; format: cell-based; settings: overnight pre-incubation
Description: Whether this same approach can be expanded to other tumor models was then examined by applying it to B16-OVA. Initial results were inconclusive, so an attempt to increase the amount of recoverable peptide was made by pre-incubating tumor cells overnight with IFN-γ to upregulate MHC I on their surface. […] The calculated yield was approximately […] of peptide per 1×10^4 tumor cells, still roughly 0.00002% (w/w) of the eluted 100 micrograms of peptide.

[1] = tested on: SIY and VDW-specific CD8+ T cells; experiment: In vivo peptide vaccination with poly I:C, dimer staining; parameters: species or system mouse; settings: Day 0 and Day 7, harvest Day 15
Description: On Day 15, mouse spleens and lymph nodes were harvested for dimer and particle staining, following similar protocols described above.

Substance | MHC I expression on tumor cells (B16-OVA tumor cells) | peptide-specific CD8+ T cells, dimer staining pre- vs post-vaccination [1]
IFNγ | drastically increased | 
SIYRYYGL |  | significant increases
VDWENVSPEL |  | significant increases
